In patent publication US12018020B2, “Crystalline forms of 1-[(3R,4S)-4-cyanotetrahydropyran-3-yl]-3-[(2-fluoro-6-methoxy-4-pyridyl)amino]pyrazole-4-carboxamide” (Intervet Inc., priority 2018, dated 2024):
Converted amounts (≈) assume the structure as drawn. Like-named read-outs stand apart in the source and are kept apart here.

What was measured:
Type in all cases: physicochemical
[1] = Conversion to hydrate risk: slurry in 5% SLS aqueous solution seeded with 5% hydrate seeds, PXRD; conditions: 20 mg/mL in 5% SLS aqueous solution, 24 hours
Method: Slurry experiments in water containing 5% SLS were used to assess the risk of form conversion during wet granulation. Typical wet granulation conditions include drying at 60 to 70° C. for 1.5 to 2 hours.
Slurries containing 20 mg/mL of either Form 1 or Form 2 in 5% sodium lauryl sulfate (SLS) aqueous solution were seeded with 5% hydrate seeds and monitored for form change with PXRD over 24 hours at room temperature and at 80° C.

[2] = Solubility in 7/3 v/v toluene/MeOH
[3] = Storage stability (processability assessment), 12 months
From the text: There is a risk of Form 2 conversion to hydrate at the typical wet granulation temperature when seeds of hydrate are present.

[4] = Slurry form-conversion experiments in organic solvents (relative thermodynamic stability)
From the text: Form 1 and Form 2 are monotropically related.
This is evidence that Form 1 is more thermodynamically stable than Form 2.

[5] = 40° C./75% relative humidity (RH)

Row | Hydrate peak growth (PXRD) ([1]; 80° C.) | Hydrate peak growth (PXRD) ([1]; room temperature) | solubility ([2]; 25 °C, organic solvent or mixture, 25 °C, read-out: Solubility) [µg/mL] | solubility ([2]; 40 °C, organic solvent or mixture, 40 °C, read-out: Solubility) [µg/mL] | solubility ([2]; 60 °C, organic solvent or mixture, 60 °C, read-out: Solubility) [µg/mL] | Physical and chemical stability on storage [3, 5] | Physical and chemical stability on storage ([3]; 55° C.) | Relative thermodynamic stability ([4]; Form 1 versus Form 2, monotropically related) | Form after slurry ([4]; slurried in MeOH, 3 weeks, room temperature) | solubility ([2]; 25 °C) [µg/mL] | solubility ([2]; 40 °C) [µg/mL] | solubility ([2]; 60 °C) [µg/mL] | Form conversion in slurry seeded with Form 1 ([4]; 2-Me-THF, Ethyl Acetate, MeOH or MeOH/toluene (70:30 v/v), 50° C., seeded with Form 1 at 14 days, 28 days total) | Form conversion in slurry ([4]; Ethyl Acetate and Isopropyl Acetate, 25° C., after 28 days) | Form conversion in competitive slurry ([4]; ~10 mg each of Form 1 and Form 2 in 1 mL MeOH, 50° C., after 4 days) | Relative thermodynamic stability ([4]; in aqueous solutions) | SMILES
1 | No hydrate peak growth observed | No hydrate peak growth observed | 3400 (≈ 9.44 mM) | 6600 (≈ 18.3 mM) | 12500 (≈ 34.7 mM) | physically and chemically stable | physically and chemically stable | more stable than Form 2 | remained as Form 1 | – | – | – | – | – | – | – | COc1cc(Nc2nn([C@H]3COCC[C@@H]3C#N)cc2C(N)=O)cc(F)n1 [Form 1, 1-[(3R,4S)-4-cyanotetrahydropyran-3-yl]-3-[(2-fluoro-6-methoxy-4-pyridyl)amino]pyrazole-4-carboxamide]
2 | no hydrate peak growth was observed | hydrate peak growth was observed | – | – | – | physically and chemically stable | physically and chemically stable | – | – | 4700 (≈ 13 mM) | 9300 (≈ 25.8 mM) | 15600 (≈ 43.3 mM) | full or conversion to Form 1 | Partial conversion | full conversion to Form 1 | – | COc1cc(Nc2nn([C@H]3COCC[C@@H]3C#N)cc2C(N)=O)cc(F)n1 [Form 2, 1-[(3R,4S)-4-cyanotetrahydropyran-3-yl]-3-[(2-fluoro-6-methoxy-4-pyridyl)amino]pyrazole-4-carboxamide]
3 | – | – | – | – | – | – | – | – | – | – | – | – | – | – | – | most stable form in aqueous solutions | COc1cc(Nc2nn([C@H]3COCC[C@@H]3C#N)cc2C(N)=O)cc(F)n1 [Hydrate, 1-[(3R,4S)-4-cyanotetrahydropyran-3-yl]-3-[(2-fluoro-6-methoxy-4-pyridyl)amino]pyrazole-4-carboxamide]
